Earlier results in patent US20250205258A1 (priority 2022, published 2025).

Columns and labels:
[1] = system: liver cancer stem cell markers CD133, CD44, and ESA; conditions: cited from earlier work
neuroblastoma cells U87 = conditions: through both apoptosis and necrosis; cited from earlier work
[2] = system: ovarian cancer cells SK—OV-3; conditions: concentration- and time-dependent, EGFR/AKT/ERK signaling pathway; cited from earlier work
STAT3 signaling pathway = conditions: by inhibiting the STAT3 signaling pathway; cited from earlier work
melanoma A375 cells = conditions: concentration- and time-dependent; cited from earlier work

For `C[C@]12CC[C@H](O)C[C@H]1CC[C@@H]1[C@@H]2CC[C@]2(C)[C@@H](c3ccc(=O)oc3)CC[C@]12O` [bufalin, Bufalin], the “expression of liver cancer stem cell markers CD133, CD44, and ESA” value [1] is listed as “significantly inhibit”, the “death of neuroblastoma cells U87” value (neuroblastoma cells U87) is listed as “induces the death” and the “proliferation of ovarian cancer cells SK—OV-3” value [2] is listed as “inhibit the proliferation”. The tumor microenvironment-mediated angiogenesis (STAT3 signaling pathway) was “suppress tumor microenvironment-mediated angiogenesis” and the “proliferation of melanoma A375 cells” value (melanoma A375 cells) was “inhibits the proliferation”.
